In US12522597B2, “Methods and compositions for modulating splicing” (Skyhawk Therapeutics, Inc., priority 2019, dated 2026):
Where two headings read alike, the source gives them in different places.

Columns and labels:
MDR1 = experiment: MDCK-MDR1 permeability assay (BBB penetration potential); type: in vitro ADME; conditions: dog; for efflux ratio at 120 min, 5 μM: MDCK-MDR1, pH 7.4, MDCK-MDR1: Efflux; for Papp A→B at 120 min, 5 μM: MDCK-MDR1, pH 7.4, MDCK-MDR1: Papp A-B; for Papp B→A at 120 min, 5 μM: MDCK-MDR1, pH 7.4, MDCK-MDR1: Papp B-A
Procedure: (§1) Each determination is performed in duplicate. […] Analytical conditions are outlined below.

[1] = system: MDR1-MDCK cell monolayers; experiment: as above; type: in vitro ADME; conditions: dog, MDCK-MDR1, 120 min, 5 μM, pH 7.4
Procedure: as §1

mHTT protein = mHTT protein assay (2B7-MW1, Mesoscale Discovery); type: cell-based, human; conditions: GM04724 (CAG 70/20) Huntington's disease patient lymphoblast cells, 48 hours, 2B7-MW1 MSD; read-out: HTT Potency - Protein EC50 mHTT (average)
Method in brief: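 GM04724 Huntington's patient lymphoblasts (CAG 70/20) were treated for 48 h at 10 μM to 0.6 nM. mHTT was quantified by 2B7-MW1 MSD immunoassay, whose signal depends on polyQ expansion and HTT fragment size. Viability was run on a parallel plate by CellTiter-Glo.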

[2] = system: Huntingtin (HTT) transcripts; experiment: Quantitative splicing assay (HTT), qPCR; type: cell-based; conditions: Homo sapiens, GM04724 (CAG 70/20) Huntington's disease patient lymphoblasts, 24 h
Method in brief: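 GM04724 HD patient lymphoblasts (CAG 70/20) dosed 24 h with compound from 2.5 uM to 0.15 nM (0.1% DMSO). Lysates converted to cDNA; TaqMan qPCR measured compound-induced inclusion of a cryptic exon in HTT intron 49.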

[3] = qPCR HTTex49_50, read-out: HTT Potency - Splicing: E49-50 EC50 (average)
[4] = qPCR cryptic exon 49b inclusion, read-out: HTT Potency - Splicing: E49b EC50 (average)

Structure (SMILES) | efflux ratio at 120 min, 5 μM (MDR1) | Papp A→B at 120 min, 5 μM (MDR1) [×10⁻⁶ cm/s] | Papp B→A at 120 min, 5 μM (MDR1) [×10⁻⁶ cm/s] | MDCK-MDR1: % Recov A-B [1] [%] | MDCK-MDR1: % Recov B-A [1] [%] | EC50 (mHTT protein) [nM] | EC50 [2, 3] [nM] | EC50 [2, 4] [nM]
Cn1cc(-c2ccc(-c3ccc(O[C@H]4C[C@@H]5CC[C@@H](N5)[C@H]4F)nn3)c(O)c2)cn1 (single isomer, unassigned) [60-ENT2] | 4 | 8.12 | 31.3 | 67 | 78 | 51 to 100 | 16 to 50 | 16 to 50
Cn1ccc(-c2ccc(-c3ccc(O[C@H]4C[C@@H]5CCC[C@@H](N5)[C@H]4F)nn3)c(O)c2)cc1=O (single isomer, unassigned) [54-ENT2] | 34 | 1.8 | 61.9 | 101 | 107 | 16 to 50 | 16 to 50 | 16 to 50
Cn1ccc(-c2ccc(-c3ccc(O[C@@H]4C[C@H]5CCC[C@H](N5)[C@@H]4F)nn3)c(O)c2)cc1=O (single isomer, unassigned) [54-ENT1] | 57 | 1.1 | 63 | 94 | 105 | 0.01 to 15 | 16 to 50 | 16 to 50
Cn1cc(-c2ccc(-c3ccc(O[C@@H]4C[C@@H]5CCC[C@@H](N5)[C@H]4F)nn3)c(O)c2)cn1 (single isomer, unassigned) [121-ENT2] | 3 | 13.5 | 45.9 | 75 | 90 | 501 to 10000 | 501 to 10000 | 501 to 10000
Cn1cc(-c2cc(O)c(-c3ccc(O[C@@H]4C[C@H]5CCC[C@H](N5)[C@@H]4F)nn3)c(F)c2)cn1 (single isomer, unassigned) [118-ENT1] | 5 | 6.21 | 33.3 | 52 | 80 | 51 to 100 | 51 to 100 | 51 to 100
Cn1ccc2cc(-c3ccc(O[C@H]4C[C@]5(C)CCC[C@@](C)(N5)[C@H]4F)nn3)c(O)cc2c1=O (single isomer, unassigned) [156-ENT2] | 9 | 4.9 | 46.3 | 80 | 99 | 0.01 to 15 | 16 to 50 | 16 to 50
Oc1cc(-c2nnco2)ccc1-c1ccc(O[C@H]2C[C@@H]3CCC[C@@H](N3)[C@H]2F)nn1 (single isomer, unassigned) [117-ENT2] | 5 | 7.22 | 37.9 | 78 | 93 | 16 to 50 | 101 to 500 | 101 to 500
Oc1cc(-c2cn[nH]c2)ccc1-c1ccc(O[C@@H]2C[C@H]3C[C@H](F)C[C@@H](C2)N3)nn1 [compound 113, 2-(6-(((1R,3r,5S,7s)-7-fluoro-9-azabicyclo[3.3.1]nonan-3-yl)oxy)pyridazin-3-yl)-5-(1H-pyrazol-4-yl)phenol] | 54 | 1.01 | 54.2 | 86 | 88 | 0.01 to 15 | 0.01 to 15 | 0.01 to 15
Cn1ccc2cc(O)c(-c3ccc(O[C@H]4C[C@]5(C)CC[C@@](C)(N5)[C@H]4F)nn3)cc2c1=O (single isomer, unassigned) [130-ENT1] | 6 | 7.86 | 43.7 | 78 | 80 | 0.01 to 15 | 51 to 100 | 16 to 50
